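Five compound concentrations were applied to cells in 96-well plates for 48 hours; endpoints were derived by simple linear interpolation of the resulting dose-response curve. GI50: concentration for 50% inhibition of growth.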 Calls of active or inactive are those of the source. Rule as the data show it: active = GI50 up to about 1.1 µM and inactive = higher.
Key:
Assay in all cases: inhibition of tumour cell growth, NCI panel, 48 h
SNB-19 = test system: SNB-19
SF-295 = test system: SF-295
A498 = test system: A498
U-251 = test system: U-251
M19-MEL = test system: M19-MEL
OVCAR-8 = test system: OVCAR-8
HOP-92 = test system: HOP-92
UACC-257 = test system: UACC-257
DMS-273 = test system: DMS-273
K562 = test system: K562
UO-31 = test system: UO-31
ACHN = test system: ACHN
HCT-116 = test system: HCT-116
TK-10 = test system: TK-10
RXF 631 = test system: RXF 631
MOLT-4 = test system: MOLT-4
HL-60 = test system: HL-60
OVCAR-5 = test system: OVCAR-5
UACC-62 = test system: UACC-62
CCRF-CEM = test system: CCRF-CEM
SK-OV-3 = test system: SK-OV-3
SNB-78 = test system: SNB-78
HOP-62 = test system: HOP-62
NCI-H460 = test system: NCI-H460
HT-29 = test system: HT-29
NCI-H23 = test system: NCI-H23
SR = test system: SR
RXF 393 = test system: RXF 393
KM12 = test system: KM12
EKVX = test system: EKVX
NCI-H522 = test system: NCI-H522
SK-MEL-28 = test system: SK-MEL-28
IGROV-1 = test system: IGROV-1
KM-20L2 = test system: KM-20L2
DMS-114 = test system: DMS-114
M14 = test system: M14
SF-268 = test system: SF-268
SF-539 = test system: SF-539
LXFL 529 = test system: LXFL 529
A549 = test system: A549
DLD-1 = test system: DLD-1
SK-MEL-2 = test system: SK-MEL-2
OVCAR-3 = test system: OVCAR-3
SK-MEL-5 = test system: SK-MEL-5
HCC 2998 = test system: HCC 2998
SNB-75 = test system: SNB-75
HCT-15 = test system: HCT-15
CAKI-1 = test system: CAKI-1
RPMI-8226 = test system: RPMI-8226
786-0 = test system: 786-0
LOX IMVI = test system: LOX IMVI
COLO 205 = test system: COLO 205
OVCAR-4 = test system: OVCAR-4
SW-620 = test system: SW-620
Malme-3M = test system: Malme-3M
NCI-H226 = test system: NCI-H226
SN12C = test system: SN12C

Structure (SMILES): CC(=O)O[C@H]1CCC(C)=CCC[C@@]2(C)C(CC[C@@H]2[C@@H](C)/C=C/C(C)C)c2ccc(cc2C(=O)O)C1 (stereo partly drawn)
- GI50 (SNB-19): 3.04 µM (inactive)
- GI50 (SF-295): 2.9 µM (inactive)
- GI50 (A498): 6.35 µM (inactive)
- GI50 (U-251): 2.54 µM (inactive)
- GI50 (M19-MEL): 4.18 µM (inactive)
- GI50 (OVCAR-8): 4.06 µM (inactive)
- GI50 (HOP-92): 2.84 µM (inactive)
- GI50 (UACC-257): 4.59 µM (inactive)
- GI50 (DMS-273): 3.84 µM (inactive)
- GI50 (K562): 3.21 µM (inactive)
- GI50 (UO-31): 2.03 µM (inactive)
- GI50 (ACHN): 3.6 µM (inactive)
- GI50 (HCT-116): 2.94 µM (inactive)
- GI50 (TK-10): 3.45 µM (inactive)
- GI50 (RXF 631): 7.4 µM (inactive)
- GI50 (MOLT-4): 1.92 µM (inactive)
- GI50 (HL-60): 1.73 µM (inactive)
- GI50 (OVCAR-5): 3.28 µM (inactive)
- GI50 (UACC-62): 1.95 µM (inactive)
- GI50 (CCRF-CEM): 3.13 µM (inactive)
- GI50 (SK-OV-3): 3.6 µM (inactive)
- GI50 (SNB-78): 3.33 µM (inactive)
- GI50 (HOP-62): 2.45 µM (inactive)
- GI50 (NCI-H460): 3.12 µM (inactive)
- GI50 (HT-29): 3.93 µM (inactive)
- GI50 (NCI-H23): 2.63 µM (inactive)
- GI50 (SR): 2.59 µM (inactive)
- GI50 (RXF 393): 3.11 µM (inactive)
- GI50 (KM12): 2.21 µM (inactive)
- GI50 (EKVX): 11 µM (inactive)
- GI50 (NCI-H522): 2.49 µM (inactive)
- GI50 (SK-MEL-28): 5.05 µM (inactive)
- GI50 (IGROV-1): 2.96 µM (inactive)
- GI50 (KM-20L2): 3.67 µM (inactive)
- GI50 (DMS-114): 4.49 µM (inactive)
- GI50 (M14): 5.02 µM (inactive)

Structure (SMILES): COC(=O)C1=CC(=O)C(C(=O)Nc2ccc(OC)cc2)C(c2ccccc2)O1 (stereo not drawn)
- GI50 (SF-268): 17.8 µM (inactive)
- GI50 (SF-539): 21.4 µM (inactive)
- GI50 (SNB-19): 18.1 µM (inactive)
- GI50 (SF-295): 24 µM (inactive)
- GI50 (A498): 29.2 µM (inactive)
- GI50 (LXFL 529): 25.9 µM (inactive)
- GI50 (U-251): 21 µM (inactive)
- GI50 (A549): 28.1 µM (inactive)
- GI50 (OVCAR-8): 34.6 µM (inactive)
- GI50 (HOP-92): 24 µM (inactive)
- GI50 (UACC-257): 72.8 µM (inactive)
- GI50 (DMS-273): 37.5 µM (inactive)
- GI50 (DLD-1): > 75.5 µM (inactive)
- GI50 (SK-MEL-2): > 81.7 µM (inactive)
- GI50 (OVCAR-3): 22.7 µM (inactive)
- GI50 (SK-MEL-5): 25.7 µM (inactive)
- GI50 (K562): > 67.6 µM (inactive)
- GI50 (UO-31): 30.5 µM (inactive)
- GI50 (ACHN): 41 µM (inactive)
- GI50 (HCC 2998): > 53.8 µM (inactive)
- GI50 (HCT-116): 28.6 µM (inactive)
- GI50 (TK-10): 31.6 µM (inactive)
- GI50 (SNB-75): 23.1 µM (inactive)
- GI50 (RXF 631): 37.2 µM (inactive)
- GI50 (MOLT-4): > 74.5 µM (inactive)
- GI50 (HCT-15): 40.6 µM
- GI50 (HL-60): > 84.3 µM (inactive)
- GI50 (CAKI-1): 25.2 µM (inactive)
- GI50 (OVCAR-5): > 100 µM (inactive)
- GI50 (UACC-62): 32.2 µM (inactive)
- GI50 (RPMI-8226): 54.5 µM (inactive)
- GI50 (CCRF-CEM): > 77.3 µM (inactive)
- GI50 (786-0): 20.7 µM (inactive)
- GI50 (LOX IMVI): 45.1 µM (inactive)
- GI50 (SK-OV-3): 28.8 µM (inactive)
- GI50 (SNB-78): 37.9 µM (inactive)
- GI50 (HOP-62): 24 µM (inactive)
- GI50 (COLO 205): > 100 µM (inactive)
- GI50 (NCI-H460): 43.9 µM (inactive)
- GI50 (OVCAR-4): 28.4 µM (inactive)
- GI50 (HT-29): > 66.5 µM (inactive)
- GI50 (NCI-H23): 21.4 µM (inactive)
- GI50 (SR): 44.5 µM (inactive)
- GI50 (RXF 393): 23.5 µM (inactive)
- GI50 (KM12): > 100 µM (inactive)
- GI50 (EKVX): 44.1 µM (inactive)
- GI50 (SW-620): 40.5 µM (inactive)
- GI50 (NCI-H522): 28 µM (inactive)
- GI50 (Malme-3M): > 53 µM (inactive)
- GI50 (NCI-H226): 21.9 µM (inactive)
- GI50 (SN12C): 47.5 µM (inactive)
- GI50 (SK-MEL-28): 37.8 µM (inactive)
- GI50 (IGROV-1): 20.5 µM (inactive)
- GI50 (KM-20L2): > 78.2 µM (inactive)
- GI50 (DMS-114): 29.7 µM (inactive)
- GI50 (M14): 33.1 µM (inactive)

Structure (SMILES): CC(=O)c1cc([N+](=O)[O-])ccc1OCC(=O)O
- GI50 (SF-268): > 100 µM (inactive)
- GI50 (SF-539): > 100 µM (inactive)
- GI50 (SNB-19): > 100 µM (inactive)
- GI50 (SF-295): > 100 µM (inactive)
- GI50 (A498): > 100 µM (inactive)
- GI50 (LXFL 529): > 100 µM (inactive)
- GI50 (U-251): > 100 µM (inactive)
- GI50 (M19-MEL): > 100 µM (inactive)
- GI50 (A549): > 100 µM (inactive)
- GI50 (OVCAR-8): > 100 µM (inactive)
- GI50 (HOP-92): > 100 µM (inactive)
- GI50 (UACC-257): > 100 µM (inactive)
- GI50 (DMS-273): > 100 µM (inactive)
- GI50 (DLD-1): > 100 µM (inactive)
- GI50 (SK-MEL-2): > 100 µM (inactive)
- GI50 (OVCAR-3): > 100 µM (inactive)
- GI50 (SK-MEL-5): > 100 µM (inactive)
- GI50 (K562): > 100 µM (inactive)
- GI50 (UO-31): > 100 µM (inactive)
- GI50 (ACHN): > 100 µM (inactive)
- GI50 (HCC 2998): > 100 µM (inactive)
- GI50 (HCT-116): > 100 µM (inactive)
- GI50 (TK-10): > 100 µM (inactive)
- GI50 (SNB-75): > 100 µM (inactive)
- GI50 (RXF 631): > 100 µM (inactive)
- GI50 (MOLT-4): > 100 µM (inactive)
- GI50 (HCT-15): > 100 µM
- GI50 (HL-60): > 100 µM (inactive)
- GI50 (CAKI-1): > 100 µM (inactive)
- GI50 (OVCAR-5): > 100 µM (inactive)
- GI50 (UACC-62): > 100 µM (inactive)
- GI50 (RPMI-8226): > 100 µM (inactive)
- GI50 (CCRF-CEM): > 100 µM (inactive)
- GI50 (786-0): > 100 µM (inactive)
- GI50 (LOX IMVI): > 100 µM (inactive)
- GI50 (SK-OV-3): > 100 µM (inactive)
- GI50 (SNB-78): > 100 µM (inactive)
- GI50 (HOP-62): > 100 µM (inactive)
- GI50 (COLO 205): > 100 µM (inactive)
- GI50 (NCI-H460): > 100 µM (inactive)
- GI50 (OVCAR-4): > 100 µM (inactive)
- GI50 (HT-29): > 100 µM (inactive)
- GI50 (NCI-H23): > 100 µM (inactive)
- GI50 (RXF 393): > 100 µM (inactive)
- GI50 (KM12): > 100 µM (inactive)
- GI50 (EKVX): > 100 µM (inactive)
- GI50 (SW-620): > 100 µM (inactive)
- GI50 (NCI-H522): > 100 µM (inactive)
- GI50 (Malme-3M): > 100 µM (inactive)
- GI50 (NCI-H226): > 100 µM (inactive)
- GI50 (SN12C): > 100 µM (inactive)
- GI50 (SK-MEL-28): > 100 µM (inactive)
- GI50 (IGROV-1): > 100 µM (inactive)
- GI50 (KM-20L2): > 100 µM (inactive)
- GI50 (DMS-114): > 100 µM (inactive)
- GI50 (M14): > 100 µM (inactive)

Source: ChEMBL document CHEMBL1201862, “PubChem BioAssay data set” (2004)
